Results from US20230241211A1, “BISPECIFIC ANTIBODY AGAINST CD3 AND CD20 IN COMBINATION THERAPY FOR TREATING DIFFUSE LARGE B-CELL LYMPHOMA” (GENMAB A/S, priority 2022, published 2023).

Columns and labels:
T cells = assay: T-cell activation with immobilized anti-CD3 in presence or absence of lenalidomide; type: cell-based; conditions: CD3 crosslinking with immobilized anti-CD3, lenalidomide 5 or 50 μM, 3 days; compared to no lenalidomide
Method: T cells were pre-incubated with assay medium or lenalidomide in the absence or presence of CD3 crosslinking by immobilized anti-CD3 for 3 days (as indicated on the x-axes), after which upregulation of CD69, CD25, PD-1 and LAMP-1 on CD4^+ and CD8^+ T cells was determined by flow cytometry. Data shown are geomean fluorescence intensities (FI) for four donors (each circle represents one condition for one donor). Pre-incubation conditions are shown on the x-axis.
(§1) Briefly, T cells were activated with immobilized anti-CD3 in the presence (5 or 50 μM) or absence of lenalidomide for 3 days. […] T cells that were activated in the presence or absence of lenalidomide were subsequently tested for their cytotoxic capacity in response to epcoritamab.

[1] = tested on: CD20-expressing Daudi cells; assay: Epcoritamab-induced T-cell-mediated cytotoxicity assay with lenalidomide-pretreated T cells; type: cell-based; conditions: T cells pre-treated with lenalidomide (5 or 50 μM) and anti-CD3 for 3 days, Daudi target cells, E:T ratio 2:1
Method: T cells were incubated with (5 or 50 μM) or without lenalidomide in the absence or presence of immobilized anti-CD3 for 3 days. […] Data shown are average percentages cytotoxicity ±SD of duplicates, normalized to medium control (no antibody, no lenalidomide).
as §1

[2] = tested on: relapsed or refractory (R/R) B-NHL; highly refractory large B-cell lymphoma; conditions: epcoritamab monotherapy, n=157, cited from earlier work
[3] = highly refractory large B-cell lymphoma

Compound | T-cell activation (upregulation of activation markers CD69, CD25 on the T cell surface, release of granzyme B and IFNγ) (T cells) | activity at lower epcoritamab concentrations [1] | maximum percent cytotoxicity ([1]; versus T cells without lenalidomide) | complete response (CR) rate [2, 3] [%] | median duration of response (DOR) [2, 3] [months] | overall response rate (ORR) [2, 3] [%] | safety profile [2]
Nc1cccc2c1CN(C1CCC(=O)NC1=O)C2=O (stereo not shown) [lenalidomide, 3-(4-Amino-1-oxo-1,3-dihydro-2H-isoindol-2-yl) piperidine-2,6-dione] | increased T-cell activation |  |  |  |  |  | 
epcoritamab: IgG1 bispecific CD3×CD20 antibody; heavy/light chain pairs SEQ ID NOs: 24/25 and 26/27; CAS 2134641-34-0 |  | higher activity at lower epcoritamab concentrations | Higher maximum percent cytotoxicity | 39 | 12 | 63 | manageable safety profile
